Reference: US20260124214A1, “HETEROCYCLIC COMPOUNDS FOR USE IN THE TREATMENT OF CANCER” (ARTIOS PHARMA LIMITED, priority 2021, published 2026)
Where a name gives a salt, the structure may show the parent alone.

Molecular target: T1, Human Polθ polymerase domain (aa1820-2590) (Homo sapiens, UniProt O75417)
T1 construct: Human Polθ polymerase domain (aa1820-2590) was expressed in E. Coli; made in house; host or cells: E. coli
T1 sequence (O75417 1820-2590): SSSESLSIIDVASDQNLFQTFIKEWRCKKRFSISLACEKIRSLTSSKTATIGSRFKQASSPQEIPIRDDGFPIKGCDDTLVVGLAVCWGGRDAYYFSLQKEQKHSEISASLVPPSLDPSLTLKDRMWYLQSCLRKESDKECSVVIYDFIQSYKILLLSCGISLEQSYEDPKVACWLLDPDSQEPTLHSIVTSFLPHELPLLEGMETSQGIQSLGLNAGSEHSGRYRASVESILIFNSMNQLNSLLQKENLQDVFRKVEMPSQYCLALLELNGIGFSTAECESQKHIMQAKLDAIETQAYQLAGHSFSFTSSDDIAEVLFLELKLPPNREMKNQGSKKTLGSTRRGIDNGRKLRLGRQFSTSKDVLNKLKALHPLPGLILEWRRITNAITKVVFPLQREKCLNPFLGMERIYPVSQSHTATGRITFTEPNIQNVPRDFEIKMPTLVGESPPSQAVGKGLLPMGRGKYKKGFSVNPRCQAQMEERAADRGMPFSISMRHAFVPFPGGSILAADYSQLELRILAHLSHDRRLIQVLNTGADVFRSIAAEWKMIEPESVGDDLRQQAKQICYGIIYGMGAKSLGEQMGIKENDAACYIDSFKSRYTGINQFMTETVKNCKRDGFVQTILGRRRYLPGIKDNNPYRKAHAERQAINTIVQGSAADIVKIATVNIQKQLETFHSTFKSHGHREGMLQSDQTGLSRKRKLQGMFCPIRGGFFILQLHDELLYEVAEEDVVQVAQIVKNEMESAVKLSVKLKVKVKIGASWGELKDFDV
Assay: Polθ Polymerase Domain WT KI Assay (PicoGreen)
Assay type: biochemical
Details: 100 nM DNA substrate, 0.156 nM Polθ, initial rates vs inhibitor concentration
Summary of the method: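 E. coli-expressed human Polθ polymerase domain (aa1820-2590) on annealed DNA II Short/Long primer-template (1.2:1), in 25 mM Tris pH 7.5, NaCl, 5% glycerol, 0.01% Triton X-100, 0.1 mg/ml BSA, 1 mM DTT, 1% DMSO. EDTA-quenched timepoints to 180 min, PicoGreen fluorescence. Initial rates vs inhibitor concentration fitted four-parameter for KI.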

Row | SMILES | Ki [nM]
1 | Cc1cc(C(F)(F)F)cc(N2C(=O)C[C@@H]3CN(CCN4CCN(S(C)(=O)=O)CC4)c4c(Cl)cccc4N(C)C(=O)[C@H]32)n1 [Example 36, (3aR,11aS)-6-Chloro-10-methyl-1-(6-methyl-4-(trifluoromethyl)pyridin-2-yl)-5-(2-(4-(methylsulfonyl)piperazin-1-yl)ethyl)-1,3a,4,5,10,11a-hexahydro-2H-benzo[b]pyrrolo[2,3-f][1,4]diazocine-2,11(3H)-dione] | 1.25
2 | Cc1cc(C(F)(F)F)cc(N2C(=O)C[C@@H]3CN(CCN4CCS(=O)(=O)CC4)c4c(Cl)cccc4N(C)C(=O)[C@H]32)n1 [Example 37, (3aR,11aS)-6-Chloro-5-(2-(1,1-dioxidothiomorpholino)ethyl)-10-methyl-1-(6-methyl-4-(trifluoromethyl)pyridin-2-yl)-1,3a,4,5,10,11a-hexahydro-2H-benzo[b]pyrrolo[2,3-f][1,4]diazocine-2,11(3H)-dione] | 1.74
3 | Cc1cc(C(F)(F)F)cc(N2C(=O)C[C@@H]3CN(CCN4CCC(C#N)CC4)c4c(Cl)cccc4N(C)C(=O)[C@H]32)n1 [Example 38, 1-(2-((3aR,11aS)-6-Chloro-10-methyl-1-(6-methyl-4-(trifluoromethyl)pyridin-2-yl)-2,11-dioxo-1,2,3,3a,4,10,11,11a-octahydro-5H-benzo[b]pyrrolo[2,3-f][1,4]diazocin-5-yl)ethyl)piperidine-4-carbonitrile] | 1.2
4 | Cc1cc(C(F)(F)F)cc(N2C(=O)C[C@@H]3CN(CCN4CC[C@H](C#N)C4)c4c(Cl)cccc4N(C)C(=O)[C@H]32)n1 [Example 39, (S)-1-(2-((3aR,11aS)-6-Chloro-10-methyl-1-(6-methyl-4-(trifluoromethyl)pyridin-2-yl)-2,11-dioxo-1,2,3,3a,4,10,11,11a-octahydro-5H-benzo[b]pyrrolo[2,3-f][1,4]diazocin-5-yl)ethyl)pyrrolidine-3-carbonitrile] | 4.13
5 | Cc1cc(C(F)(F)F)cc(N2C(=O)C[C@@H]3CN(CCN4CC[C@@H](C#N)C4)c4c(Cl)cccc4N(C)C(=O)[C@H]32)n1 [Example 40, (R)-1-(2-((3aR,11aS)-6-Chloro-10-methyl-1-(6-methyl-4-(trifluoromethyl)pyridin-2-yl)-2,11-dioxo-1,2,3,3a,4,10,11,11a-octahydro-5H-benzo[b]pyrrolo[2,3-f][1,4]diazocin-5-yl)ethyl)pyrrolidine-3-carbonitrile] | 2.92
6 | Cc1cc(C(F)(F)F)cc(N2C(=O)C[C@@H]3CN(CCN4CC[C@H](C(=O)N(C)C)C4)c4c(Cl)cccc4N(C)C(=O)[C@H]32)n1 [Example 41, (S)-1-(2-((3aR,11aS)-6-Chloro-10-methyl-1-(6-methyl-4-(trifluoromethyl)pyridin-2-yl)-2,11-dioxo-1,2,3,3a,4,10,11,11a-octahydro-5H-benzo[b]pyrrolo[2,3-f][1,4]diazocin-5-yl)ethyl)-N,N-dimethylpyrrolidine-3-carboxamide] | 2.9
7 | Cc1cc(C(F)(F)F)cc(N2C(=O)C[C@@H]3CN(CCN4CC[C@@H](C(=O)N(C)C)C4)c4c(Cl)cccc4N(C)C(=O)[C@H]32)n1 [Example 42, (R)-1-(2-((3aR,11aS)-6-Chloro-10-methyl-1-(6-methyl-4-(trifluoromethyl)pyridin-2-yl)-2,11-dioxo-1,2,3,3a,4,10,11,11a-octahydro-5H-benzo[b]pyrrolo[2,3-f][1,4]diazocin-5-yl)ethyl)-N,N-dimethylpyrrolidine-3-carboxamide] | 4.96
8 | Cc1cc(C(F)(F)F)cc(N2C(=O)C[C@@H]3CN(CCN4CCN5C(=O)COC[C@H]5C4)c4c(Cl)cccc4N(C)C(=O)[C@H]32)n1 [Example 43, (3aR,11aS)-6-Chloro-10-methyl-1-(6-methyl-4-(trifluoromethyl)pyridin-2-yl)-5-(2-((R)-4-oxohexahydropyrazino[2,1-c][1,4]oxazin-8(1H)-yl)ethyl)-1,3a,4,5,10,11a-hexahydro-2H-benzo[b]pyrrolo[2,3-f][1,4]diazocine-2,11(3H)-dione] | 3.05
9 | Cc1cc(C(F)(F)F)cc(N2C(=O)C[C@@H]3CN(CCN4CCOCC4)c4c(C)cccc4N(C)C(=O)[C@H]32)n1 [Example 44, (3aR,11aS)-6,10-Dimethyl-1-(6-methyl-4-(trifluoromethyl)pyridin-2-yl)-5-(2-morpholinoethyl)-1,3a,4,5,10,11a-hexahydro-2H-benzo[b]pyrrolo[2,3-f][1,4]diazocine-2,11(3H)-dione] | 0.349
10 | Cc1cc(C(F)(F)F)cc(N2C(=O)C[C@@H]3CN(CCN4CCN(C)[C@@H](C)C4)c4c(C)cccc4N(C)C(=O)[C@H]32)n1 [Example 46, (3aR,11aS)-5-(2-((S)-3,4-Dimethylpiperazin-1-yl)ethyl)-6,10-dimethyl-1-(6-methyl-4-(trifluoromethyl)pyridin-2-yl)-1,3a,4,5,10,11a-hexahydro-2H-benzo[b]pyrrolo[2,3-f][1,4]diazocine-2,11(3H)-dione dihydrochloride] | 0.515
11 | Cc1cc(C(F)(F)F)cc(N2C(=O)C[C@@H]3CN(CCN4CCN(C)[C@H](C)C4)c4c(C)cccc4N(C)C(=O)[C@H]32)n1 [Example 47, (3aR,11aS)-5-(2-((R)-3,4-Dimethylpiperazin-1-yl)ethyl)-6,10-dimethyl-1-(6-methyl-4-(trifluoromethyl)pyridin-2-yl)-1,3a,4,5,10,11a-hexahydro-2H-benzo[b]pyrrolo[2,3-f][1,4]diazocine-2,11(3H)-dione dihydrochloride] | 0.605
12 | Cc1cc(C(F)(F)F)cc(N2C(=O)C[C@@H]3CN(CCN4CCN(C)C[C@H]4C)c4c(C)cccc4N(C)C(=O)[C@H]32)n1 [Example 48, (3aR,11aS)-5-(2-((R)-2,4-Dimethylpiperazin-1-yl)ethyl)-6,10-dimethyl-1-(6-methyl-4-(trifluoromethyl)pyridin-2-yl)-1,3a,4,5,10,11a-hexahydro-2H-benzo[b]pyrrolo[2,3-f][1,4]diazocine-2,11(3H)-dione dihydrochloride] | 0.307
13 | Cc1cc(C(F)(F)F)cc(N2C(=O)C[C@@H]3CN(CCN4CCN(C)C[C@@H]4C)c4c(C)cccc4N(C)C(=O)[C@H]32)n1 [Example 49, (3aR,11aS)-5-(2-((S)-2,4-Dimethylpiperazin-1-yl)ethyl)-6,10-dimethyl-1-(6-methyl-4-(trifluoromethyl)pyridin-2-yl)-1,3a,4,5,10,11a-hexahydro-2H-benzo[b]pyrrolo[2,3-f][1,4]diazocine-2,11(3H)-dione dihydrochloride] | 0.457
14 | Cc1cc(C(F)(F)F)cc(N2C(=O)C[C@@H]3CN(CCN4CCN(C(=O)[C@@H](C)O)CC4)c4c(C)cccc4N(C)C(=O)[C@H]32)n1 [Example 51, (3aR,11aS)-5-(2-(4-((R)-2-Hydroxypropanoyl)piperazin-1-yl)ethyl)-6,10-dimethyl-1-(6-methyl-4-(trifluoromethyl)pyridin-2-yl)-1,3a,4,5,10,11a-hexahydro-2H-benzo[b]pyrrolo[2,3-f][1,4]diazocine-2,11(3H)-dione hydrochloride] | 0.928
15 | Cc1cc(C(F)(F)F)cc(N2C(=O)C[C@@H]3CN(CCN4CCN(C(=O)[C@H](C)O)CC4)c4c(C)cccc4N(C)C(=O)[C@H]32)n1 [Example 52, (3aR,11aS)-5-(2-(4-((S)-2-Hydroxypropanoyl)piperazin-1-yl)ethyl)-6,10-dimethyl-1-(6-methyl-4-(trifluoromethyl)pyridin-2-yl)-1,3a,4,5,10,11a-hexahydro-2H-benzo[b]pyrrolo[2,3-f][1,4]diazocine-2,11(3H)-dione hydrochloride] | 0.957
16 | Cc1cc(C(F)(F)F)cc(N2C(=O)C[C@@H]3CN(CCN4CCN(CCO)CC4)c4c(C)cccc4N(C)C(=O)[C@H]32)n1 [Example 53, (3aR,11aS)-5-(2-(4-(2-Hydroxyethyl)piperazin-1-yl)ethyl)-6,10-dimethyl-1-(6-methyl-4-(trifluoromethyl)pyridin-2-yl)-1,3a,4,5,10,11a-hexahydro-2H-benzo[b]pyrrolo[2,3-f][1,4]diazocine-2,11(3H)-dione] | 1.23
17 | Cc1cc(C(F)(F)F)cc(N2C(=O)C[C@@H]3CN(CCN(C)CCO)c4c(C)cccc4N(C)C(=O)[C@H]32)n1 [Example 54, (3aR,11aS)-5-(2-((2-Hydroxyethyl)(methyl)amino)ethyl)-6,10-dimethyl-1-(6-methyl-4-(trifluoromethyl)pyridin-2-yl)-1,3a,4,5,10,11a-hexahydro-2H-benzo[b]pyrrolo[2,3-f][1,4]diazocine-2,11(3H)-dione] | 5.56
